The results in this text go back to patent publication EP0806963B1, “CARCINOMA TREATMENT” (THE UNIVERSITY OF BIRMINGHAM, priority 1994, dated 1996).

SMILES strings stand for the structures.

In experiment [1] the test system is ovarian carcinoma cell line A2780. The experiment is described as follows: MTT colorimetric cell growth assay (Mossman), A2780. As to conditions: 48 hour MTT assay. Format: cell-based, human. The text has this:
(§1) A human ovarian carcinoma cell line A2780 and its cis-platin-resistant derivative 2780CP ( see Masuda et al., Cancer Res., 50, 1863-1866, 1990), an EJ bladder carcinoma cell line (Accession No.85061108, European Collection of Animal Cell Cultures, Porton Down, UK ) and Rat-1 fibroblasts (Lania et al., Virology, 101, 217-232, 1980) were continuously maintained in RPMI 1640 medium (GIBCOBRL, Life technologies Ltd, Paisley, Scotland) supplemented with 10% FCS (foetal calf serum - ICN Flow, Thane, Oxfordshire, England), 2mM glutamine, and the antibiotics, penicillin (1000 U/ml) and streptomycin (1mg/ml) (Sigma Co. Ltd, Poole, Dorset, England) at 37°C in a 5% CO2 atmosphere.
(§2) Inhibition of cell proliferation was evaluated using the colorimetric assay of Mossman (see Mossman, J. Immunol. Meths., 65, 55-63, 1983). […] Various concentrations of G28.5 mAb were then added and their effect on cell growth was evaluated after an appropriate period of time (48, 72 or 96 hrs) by the addition of 20 µl of 5 mg/ml MTT (3-([…])-2,5-diphenyl tetrazolium bromide) obtained from Sigma, in PBS. The cells were further incubated for 5 hrs at 37°C, formazan crystals thus formed were dissolved in DMSO and the optical density (O.D.) was recorded at 550nm on a Becton Dickinson Multiscan. […] After 48 hours, cell growth was assessed using the MTT assay as described above. […]
(In general: Tetrazolium dyes change colour on reduction, which living cells bring about.)

The subject of experiment [2] is Rat-1/CD40 CI.8 cell line. The experiment is described as follows: MTT colorimetric cell growth assay (Mossman), CD40-transfected Rat-1 fibroblasts. It counts as cell-based.
Description: as §1, with “atmosphere. […]” for “atmosphere.”
as §2

What is called IC50 is the concentration needed to halve the response being measured. Higher therefore signals weaker potency. Regarding `N.N.[Cl][Pt][Cl]` [cis-platin], the cell killing effect in experiment [1] (5 µM cis-platin alone) was 46%; in experiment [1] (5 µM cis-platin with 10 µg/ml G28.5 mAb), 61%. Moreover, the IC50 in experiment [2] (cis-platin with 1 µg/ml G28.5 mAb, spread +/- 0.3) was 4.2 µM; in experiment [2] (cis-platin without G28.5 mAb, spread +/- 0.9) it was 6 µM.
